# Experimental data reported in ChEMBL document CHEMBL1201862, “PubChem BioAssay data set” (2004).
# Activity calls are given as the source filed them.
# What was measured:
# [1] = A Cell-Based Confirmatory Screen for Compounds that Inhibit VEEV TC-83 (4).; type: functional
# [2] = A Cell-Based Confirmatory Screen for Compounds that Inhibit VEEV, TC-83 (3).; type: functional
# [3] = A Cell-Based Confirmatory Screen for Compounds that Inhibit VEEV, TC-83 (5).; type: functional
# [4] = biological target: Muscarinic acetylcholine receptor M5 (Rattus norvegicus, UniProt P08911); assay: Discovery of Novel Antagonists of Muscarinic Receptor M5: Counterscreen against RAT M5.; type: functional
# Sequence of Muscarinic acetylcholine receptor M5 (Rattus norvegicus, UniProt P08911) (P08911 whole entry): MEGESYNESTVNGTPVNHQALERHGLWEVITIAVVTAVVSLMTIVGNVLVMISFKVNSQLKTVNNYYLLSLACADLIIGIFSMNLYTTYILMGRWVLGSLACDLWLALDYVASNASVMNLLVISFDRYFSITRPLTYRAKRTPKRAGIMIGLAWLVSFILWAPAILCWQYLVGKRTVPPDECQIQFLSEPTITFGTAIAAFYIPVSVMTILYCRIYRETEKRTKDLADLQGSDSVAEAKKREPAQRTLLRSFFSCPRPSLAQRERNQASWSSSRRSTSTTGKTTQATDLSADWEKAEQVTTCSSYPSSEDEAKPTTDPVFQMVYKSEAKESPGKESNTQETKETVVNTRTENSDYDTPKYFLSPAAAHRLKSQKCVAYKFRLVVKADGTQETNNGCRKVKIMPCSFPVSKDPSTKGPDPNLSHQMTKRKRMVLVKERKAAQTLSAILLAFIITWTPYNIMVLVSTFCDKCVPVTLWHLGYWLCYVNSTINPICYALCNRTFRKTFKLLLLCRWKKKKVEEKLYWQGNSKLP
# [5] = biological target: Muscarinic acetylcholine receptor M5 (Homo sapiens, UniProt P08912); assay: inhibition of ACh-evoked human M5 signalling – cell-based, CHO-K1 hM5, Fluo-4 calcium flux, ACh EC80, dose response (AID 743110); type: functional
# Sequence of Muscarinic acetylcholine receptor M5 (Homo sapiens, UniProt P08912) (P08912 whole entry): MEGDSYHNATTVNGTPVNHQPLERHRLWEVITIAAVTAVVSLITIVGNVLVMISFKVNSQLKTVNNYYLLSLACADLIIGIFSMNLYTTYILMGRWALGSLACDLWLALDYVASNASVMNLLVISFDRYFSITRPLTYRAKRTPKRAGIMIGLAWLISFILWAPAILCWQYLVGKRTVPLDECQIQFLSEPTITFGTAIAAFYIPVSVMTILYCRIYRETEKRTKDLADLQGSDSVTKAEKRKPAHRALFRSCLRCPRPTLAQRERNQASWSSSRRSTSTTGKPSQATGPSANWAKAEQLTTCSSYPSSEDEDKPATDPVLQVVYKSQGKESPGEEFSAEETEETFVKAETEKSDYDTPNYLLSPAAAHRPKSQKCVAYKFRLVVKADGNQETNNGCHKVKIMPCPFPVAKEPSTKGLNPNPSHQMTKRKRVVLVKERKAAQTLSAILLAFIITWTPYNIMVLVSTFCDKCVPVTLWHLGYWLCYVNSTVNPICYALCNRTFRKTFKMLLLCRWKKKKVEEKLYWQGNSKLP
# [6] = growth inhibition of yeast DHODH-expressing 3D7 parasites – SYBR Green, dry powder samples, dose response (AID 1159570); type: functional, cell-based;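 also: parasite growth measured after 72 hours of compound exposure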
# [7] = Plasmodium falciparum Dd2 Sybr green parasite growth Measured in Cell-Based and Microorganism Combination System Using Plate Reader - 2153-01_Inhibitor_Dose_DryPowder_Activity_Set3.; type: functional
# [8] = Dd2 malaria parasite growth inhibition potency – SYBR Green, dry powder samples, dose response (AID 1159566); type: functional, cell-based;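 also: potency for growth inhibition with lower SYBR green DNA signal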
# [9] = P. falciparum Dd2 growth inhibitors, dose response, SYBR Green, cherry-picked samples (AID 1159567); type: functional, cell-based
# [10] = growth inhibition of PfATP4-mutant resistant parasites – NITD609-resistant line, SYBR Green, dry powder, dose response (AID 1159571); type: functional, cell-based;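 also: parasites synchronized at ring stage by sorbitol before testing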
# [11] = HCT116 cell viability decrease, GSK3B pretreatment – CellTiter-Glo, IC50, dose response (AID 1117339); type: functional; conditions: HCT-116
# [12] = SNU-C1 cell viability reduction, dose response, CellTiter-Glo luminescence (AID 1117323); type: functional, cell-based
# [13] = Reduced DLD-1 viability, concentration-response, CellTiter-Glo luminescence (AID 1117352); type: functional
# [14] = RKO cell viability reduction, dose response, CellTiter-Glo luminescence (AID 1117322); type: functional
# [15] = cytotoxicity toward Colo320 cells – cell-based, CellTiter-Glo luminescence, IC50, dose response (AID 1117334); type: functional; conditions: COLO 320
# [16] = cytotoxicity toward HCT116 cells – cell-based, CellTiter-Glo luminescence, IC50, dose response (AID 1117332); type: functional; conditions: HCT-116
# [17] = CellTiter-Glo luminescence survival assay, SW480 colon tumor line, concentration-response curve, half-maximal inhibitory concentration (AID 1117338); type: functional
# [18] = biological target: G-protein coupled receptor 183 (Homo sapiens, UniProt P32249); assay: SAR confirmation of small molecule antagonists of the EBI2 receptor via a luminescent beta-arrestin assa.; type: functional
# Sequence of G-protein coupled receptor 183 (P32249 whole entry): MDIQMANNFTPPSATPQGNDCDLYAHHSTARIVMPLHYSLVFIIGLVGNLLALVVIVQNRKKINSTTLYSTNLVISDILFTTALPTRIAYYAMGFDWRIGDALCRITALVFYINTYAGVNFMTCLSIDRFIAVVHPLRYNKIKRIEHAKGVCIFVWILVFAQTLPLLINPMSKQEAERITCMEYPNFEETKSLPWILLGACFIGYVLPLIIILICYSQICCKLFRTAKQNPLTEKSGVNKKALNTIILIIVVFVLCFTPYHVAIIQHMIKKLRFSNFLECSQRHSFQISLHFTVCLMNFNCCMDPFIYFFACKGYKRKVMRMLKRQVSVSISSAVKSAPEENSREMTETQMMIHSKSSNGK
# [19] = antifungal activity, alamar blue, dry powder, counter-screen for C. neoformans cell wall antifungals, dose response (AID 743128); type: functional, organism-based
# cells = conditions: HEK293
# [20] = toxicity to HepG2 liver cells – cell-based, plate reader, dry powder, set 6, cytotoxicity control, dose response (AID 743311); type: functional
# [21] = biological target: Metabotropic glutamate receptor 7 (Homo sapiens, UniProt Q14831); assay: potentiation of glutamate EC20 at mGlu7 – cell-based, calcium mobilization, Galpha15, dose response (AID 743384); type: functional
# Sequence of Metabotropic glutamate receptor 7 (Q14831 whole entry): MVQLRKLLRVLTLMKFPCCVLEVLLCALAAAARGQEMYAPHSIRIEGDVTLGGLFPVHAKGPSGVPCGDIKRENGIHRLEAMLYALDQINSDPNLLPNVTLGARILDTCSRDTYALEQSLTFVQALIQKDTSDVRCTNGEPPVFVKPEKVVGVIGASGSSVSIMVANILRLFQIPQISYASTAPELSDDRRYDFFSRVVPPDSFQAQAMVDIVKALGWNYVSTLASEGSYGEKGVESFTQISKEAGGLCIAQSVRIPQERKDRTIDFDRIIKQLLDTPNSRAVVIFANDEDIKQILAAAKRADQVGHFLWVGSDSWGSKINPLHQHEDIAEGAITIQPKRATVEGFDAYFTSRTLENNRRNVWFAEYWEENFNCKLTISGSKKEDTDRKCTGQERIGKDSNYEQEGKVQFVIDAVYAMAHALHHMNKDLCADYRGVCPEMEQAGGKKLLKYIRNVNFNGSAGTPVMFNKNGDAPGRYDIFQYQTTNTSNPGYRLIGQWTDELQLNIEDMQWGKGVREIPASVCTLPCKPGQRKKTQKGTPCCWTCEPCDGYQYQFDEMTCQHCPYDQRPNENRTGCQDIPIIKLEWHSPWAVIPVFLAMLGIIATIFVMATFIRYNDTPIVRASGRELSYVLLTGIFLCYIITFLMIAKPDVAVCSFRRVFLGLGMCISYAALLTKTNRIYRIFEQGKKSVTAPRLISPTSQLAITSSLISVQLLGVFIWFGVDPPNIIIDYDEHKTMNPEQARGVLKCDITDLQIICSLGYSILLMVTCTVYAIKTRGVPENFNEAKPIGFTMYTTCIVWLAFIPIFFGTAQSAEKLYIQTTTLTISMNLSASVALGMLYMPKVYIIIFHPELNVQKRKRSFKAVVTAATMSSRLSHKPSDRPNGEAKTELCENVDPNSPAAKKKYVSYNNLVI
# [22] = loss of HEK293T viability via ATP – cell-based, plate reader, dry powder, set 10, cytotoxicity control, dose response (AID 743315); type: functional; conditions: HEK293
# [23] = toxicity to A549 lung cells – cell-based, plate reader, dry powder, set 6, cytotoxicity control, dose response (AID 743312); type: functional
# Streptokinase A = biological target: T1, Streptokinase A (Streptococcus pyogenes serotype M1, UniProt P10520); assay: viability-normalized secreted streptokinase activity reduction – plasminogen activation absorbance, OD405, dose response (AID 1914); type: functional, Streptococcus pyogenes M1 GAS;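 also: secreted streptokinase activity via plasminogen activation per viability signal from cell pellet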
# T1 sequence (P10520 whole entry): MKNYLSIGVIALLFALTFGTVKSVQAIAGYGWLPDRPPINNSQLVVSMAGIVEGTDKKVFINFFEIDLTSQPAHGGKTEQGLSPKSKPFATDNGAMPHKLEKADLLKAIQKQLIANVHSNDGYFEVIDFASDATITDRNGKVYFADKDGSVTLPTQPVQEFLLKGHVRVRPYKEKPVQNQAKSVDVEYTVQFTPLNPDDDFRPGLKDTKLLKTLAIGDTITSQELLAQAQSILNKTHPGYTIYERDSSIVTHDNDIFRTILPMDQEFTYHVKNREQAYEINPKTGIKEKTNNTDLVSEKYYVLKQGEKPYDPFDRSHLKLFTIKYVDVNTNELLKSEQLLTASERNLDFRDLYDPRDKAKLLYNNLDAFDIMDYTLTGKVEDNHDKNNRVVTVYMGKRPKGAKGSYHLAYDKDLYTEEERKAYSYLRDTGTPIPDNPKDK
# Cytochrome P450 2C19 [24] = biological target: T2, Cytochrome P450 2C19 (Homo sapiens, UniProt P33261); assay: qHTS Assay for Inhibitors and Substrates of Cytochrome P450 2C19. [Related pubchem assays: 410 ]; type: ADME; conditions: read-out: Potency
# T2 sequence (P33261 whole entry): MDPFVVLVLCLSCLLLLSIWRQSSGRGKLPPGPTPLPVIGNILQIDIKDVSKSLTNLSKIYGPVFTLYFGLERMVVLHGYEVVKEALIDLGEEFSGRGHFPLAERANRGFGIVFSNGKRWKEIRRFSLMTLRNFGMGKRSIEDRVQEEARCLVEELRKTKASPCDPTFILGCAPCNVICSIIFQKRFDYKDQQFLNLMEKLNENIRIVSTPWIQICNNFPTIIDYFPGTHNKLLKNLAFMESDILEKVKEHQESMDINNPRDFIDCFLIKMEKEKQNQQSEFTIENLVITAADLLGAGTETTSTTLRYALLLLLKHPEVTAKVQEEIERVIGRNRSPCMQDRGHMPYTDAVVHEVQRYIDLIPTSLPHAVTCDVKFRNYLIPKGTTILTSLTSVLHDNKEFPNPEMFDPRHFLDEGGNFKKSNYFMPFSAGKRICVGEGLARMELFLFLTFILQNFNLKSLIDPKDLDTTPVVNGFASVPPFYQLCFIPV
# [25] = biological target: Voltage-gated inwardly rectifying potassium channel KCNH2 (Homo sapiens, UniProt Q12809); conditions: Potency;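 also: confirmatory quantitative high-throughput screen measuring inhibition of hERG channel activity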
# Sequence of Voltage-gated inwardly rectifying potassium channel KCNH2 (Q12809 whole entry): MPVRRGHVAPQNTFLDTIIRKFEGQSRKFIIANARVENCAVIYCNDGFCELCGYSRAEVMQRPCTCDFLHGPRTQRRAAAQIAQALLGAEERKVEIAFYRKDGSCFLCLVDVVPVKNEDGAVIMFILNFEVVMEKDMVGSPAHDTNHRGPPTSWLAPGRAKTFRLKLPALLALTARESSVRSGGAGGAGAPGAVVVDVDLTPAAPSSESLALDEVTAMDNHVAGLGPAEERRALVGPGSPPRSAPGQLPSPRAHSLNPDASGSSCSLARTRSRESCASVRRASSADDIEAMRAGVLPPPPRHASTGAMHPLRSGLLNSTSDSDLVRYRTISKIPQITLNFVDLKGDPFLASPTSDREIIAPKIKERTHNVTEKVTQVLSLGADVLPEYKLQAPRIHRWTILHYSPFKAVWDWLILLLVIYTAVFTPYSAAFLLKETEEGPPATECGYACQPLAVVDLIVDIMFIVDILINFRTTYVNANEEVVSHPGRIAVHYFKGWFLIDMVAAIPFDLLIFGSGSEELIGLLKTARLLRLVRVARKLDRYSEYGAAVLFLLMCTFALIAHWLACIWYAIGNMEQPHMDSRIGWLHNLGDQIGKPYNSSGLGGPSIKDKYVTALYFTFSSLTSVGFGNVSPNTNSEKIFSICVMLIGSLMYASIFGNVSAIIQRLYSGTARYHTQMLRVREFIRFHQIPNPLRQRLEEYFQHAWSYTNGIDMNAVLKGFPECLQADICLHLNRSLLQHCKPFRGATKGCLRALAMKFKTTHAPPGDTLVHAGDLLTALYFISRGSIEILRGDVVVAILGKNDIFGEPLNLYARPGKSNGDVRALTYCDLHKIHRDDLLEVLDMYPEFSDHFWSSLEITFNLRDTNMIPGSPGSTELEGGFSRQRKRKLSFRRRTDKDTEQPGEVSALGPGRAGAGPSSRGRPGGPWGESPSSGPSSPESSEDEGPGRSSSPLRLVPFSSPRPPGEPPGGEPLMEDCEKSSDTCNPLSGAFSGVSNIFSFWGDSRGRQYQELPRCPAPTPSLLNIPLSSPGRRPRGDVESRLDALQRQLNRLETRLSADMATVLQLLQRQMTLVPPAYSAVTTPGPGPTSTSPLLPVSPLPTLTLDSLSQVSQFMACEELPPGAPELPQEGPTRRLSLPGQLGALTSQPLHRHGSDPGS
# Streptococcus = assay: GAS UMAA2166 growth inhibition – luminescence, BacTiterGlo, counter-screen for streptokinase expression inhibitor project, dose response (AID 1915); type: functional, organism-based; conditions: Streptococcus;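 also: potency for reduction of bacterial viability or growth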
# Cytochrome P450 3A4 [26] = biological target: T3, Cytochrome P450 3A4 (Homo sapiens, UniProt P08684); conditions: Potency
# T3 sequence (P08684 whole entry): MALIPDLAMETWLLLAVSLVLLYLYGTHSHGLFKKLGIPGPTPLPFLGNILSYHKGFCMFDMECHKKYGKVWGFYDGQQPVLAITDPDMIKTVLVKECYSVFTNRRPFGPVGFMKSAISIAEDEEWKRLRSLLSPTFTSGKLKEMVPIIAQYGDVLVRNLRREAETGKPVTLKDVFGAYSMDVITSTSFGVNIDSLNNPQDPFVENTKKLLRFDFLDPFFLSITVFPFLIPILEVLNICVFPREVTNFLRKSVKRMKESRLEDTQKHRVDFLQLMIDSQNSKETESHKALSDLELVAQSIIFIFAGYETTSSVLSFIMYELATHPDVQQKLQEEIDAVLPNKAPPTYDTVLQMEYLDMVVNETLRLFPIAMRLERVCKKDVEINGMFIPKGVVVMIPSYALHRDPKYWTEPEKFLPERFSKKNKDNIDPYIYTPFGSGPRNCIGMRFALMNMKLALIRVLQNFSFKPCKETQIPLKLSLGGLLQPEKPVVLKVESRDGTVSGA
# Cytochrome P450 3A4 [27] = biological target: T3, Cytochrome P450 3A4
# Cytochrome P450 2C19 [28] = biological target: T2, Cytochrome P450 2C19; assay: Cytochrome panel assay with activity outcomes. Panel member name: p450-cyp2c19 Compounds with AC50 equal or less than 10 uM are considered active; type: functional; conditions: read-out: AC50
# [29] = test system: Streptococcus sp. 'group A'; assay: Streptococcus pyogenes SK(-)GAS viability under kanamycin – luminescence, BacTiterGlo, confirmation, counter-screen for streptokinase expression inhibitor project, dose response (AID 1900); type: functional, organism-based; conditions: Streptococcus sp. 'group A'
compound,measurement,setting,value
CN1CCN(Cc2nc3ccc([N+](=O)[O-])cc3c(=O)n2-c2ccccc2F)CC1,IC50,[1],0.74 µM (active)
same,IC50,[2],< 0.72 µM (active)
same,IC50,[3],0.65 µM (active)
CC(=O)c1cccc(NCc2cc(C(=O)N(C)C(C)c3ccccn3)no2)c1 (stereo not drawn),IC50,[4],7.11 µM (active)
same,IC50,[5],6.77 µM (active)
CO[C@@H]1CN(C)C(=O)c2ccc(NC(=O)Nc3ccccc3F)cc2OC[C@@H](C)N(CCC(F)(F)F)C[C@H]1C,AC50,[6],6.04 µM (active)
same,AC50,[7],0.567 µM (active)
same,AC50,[8],0.51 µM (active)
same,AC50,[9],1.57 µM (active)
same,AC50,[10],1.92 µM (active)
C[S+](CC[C@H](N)C(=O)O)C[C@H]1O[C@@H](n2cnc3c(N)ncnc32)[C@H](O)[C@H]1O (stereo partly drawn),IC50,[11],> 20 µM (inactive)
same,IC50,[12],> 20 µM (inactive)
same,IC50,[13],> 20 µM (inactive)
same,IC50,[14],> 20 µM (inactive)
same,IC50,[15],> 20 µM (inactive)
same,IC50,[16],> 20 µM (inactive)
same,IC50,[17],> 20 µM (inactive)
COc1cc(CN2CCN(C(=O)/C=C/c3ccc(Br)cc3)CC2)cc(OC)c1,IC50,[18],0.00364 µM (active)
Cc1ccc(OCCn2cnc3ccccc32)cc1,AC50,[19],38.9 µM (active)
c1ccc(COc2ccc(OCCn3cnc4ccccc43)cc2)cc1,AC50,cells,> 52 µM (inactive)
same,AC50,[20],> 52 µM (inactive)
COc1ccc(CSCC(=O)c2cc(C)n(-c3ccc(OC(F)F)cc3)c2C)cc1,EC50,[21],10 µM (active)
CC(C)(C)c1ccc(OCCn2cnc3ccccc32)cc1,AC50,[22],15.9 µM (active)
same,AC50,cells,20.9 µM (active)
same,AC50,[23],23.9 µM (active)
CCCN(CC1CC1)c1nc(C)nc(Nc2c(Cl)cc(Cl)cc2Cl)c1Cl,EC50,Streptokinase A,1.31 µM (active)
same,AC50,Cytochrome P450 2C19 [24],7.94 µM (inconclusive)
same,AC50,[25],14.1 µM (inconclusive)
same,EC50,Streptococcus,15.2 µM (active)
same,AC50,Cytochrome P450 3A4 [26],12.6 µM (inconclusive)
same,AC50,Cytochrome P450 3A4 [27],15.8 µM (inconclusive)
same,AC50,Cytochrome P450 2C19 [28],31.6 µM (inconclusive)
same,EC50,[29],1.39 µM (active)
